Source: PubChem BioAssay (NCI)
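Results reflect a 48-hour exposure of cells in 96-well plates to compound at five concentrations. GI50 = concentration required for 50% inhibition of growth. TGI marks complete inhibition of growth.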

How the values were obtained:
Assay in all cases: inhibition of tumour cell growth, NCI panel, 48 h
786-0 renal = system: 786-0 renal
A498 renal = system: A498 renal
A549 NSCLC = system: A549 NSCLC
ACHN renal = system: ACHN renal
BT-549 breast = system: BT-549 breast
CAKI-1 renal = system: CAKI-1 renal
CCRF-CEM leukemia = system: CCRF-CEM leukemia
COLO 205 colon = system: COLO 205 colon
DU-145 prostate = system: DU-145 prostate
EKVX NSCLC = system: EKVX NSCLC
HCC-2998 colon = system: HCC-2998 colon
HCT-116 colon = system: HCT-116 colon
HCT-15 colon = system: HCT-15 colon
HL-60(TB) leukemia = system: HL-60(TB) leukemia
HOP-62 NSCLC = system: HOP-62 NSCLC
HOP-92 NSCLC = system: HOP-92 NSCLC
HS 578T breast = system: HS 578T breast
HT29 colon = system: HT29 colon
IGROV1 ovarian = system: IGROV1 ovarian
K-562 leukemia = system: K-562 leukemia
KM12 colon = system: KM12 colon
LOX IMVI melanoma = system: LOX IMVI melanoma
M14 melanoma = system: M14 melanoma
MALME-3M melanoma = system: MALME-3M melanoma
MCF7 breast = system: MCF7 breast
MDA-MB-231 breast = system: MDA-MB-231 breast
MDA-MB-435 = system: MDA-MB-435
MDA-MB-468 breast = system: MDA-MB-468 breast
MOLT-4 leukemia = system: MOLT-4 leukemia
NCI-H226 lung = system: NCI-H226 lung
NCI-H23 lung = system: NCI-H23 lung
NCI-H460 lung = system: NCI-H460 lung
NCI-H522 lung = system: NCI-H522 lung
NCI/ADR-RES ovarian = system: NCI/ADR-RES ovarian
OVCAR-3 ovarian = system: OVCAR-3 ovarian
OVCAR-4 ovarian = system: OVCAR-4 ovarian
OVCAR-5 ovarian = system: OVCAR-5 ovarian
OVCAR-8 ovarian = system: OVCAR-8 ovarian
PC-3 prostate = system: PC-3 prostate
RPMI-8226 leukemia = system: RPMI-8226 leukemia
RXF 393 renal = system: RXF 393 renal
SF-268 CNS = system: SF-268 CNS
SF-295 CNS = system: SF-295 CNS
SF-539 CNS = system: SF-539 CNS
SK-MEL-2 melanoma = system: SK-MEL-2 melanoma
SK-MEL-28 melanoma = system: SK-MEL-28 melanoma
SK-MEL-5 melanoma = system: SK-MEL-5 melanoma
SK-OV-3 ovarian = system: SK-OV-3 ovarian
SN12C renal = system: SN12C renal
SNB-19 CNS = system: SNB-19 CNS
SNB-75 CNS = system: SNB-75 CNS
SR leukemia = system: SR leukemia
SW-620 colon = system: SW-620 colon
T-47D breast = system: T-47D breast
TK-10 renal = system: TK-10 renal
U251 CNS = system: U251 CNS
UACC-257 melanoma = system: UACC-257 melanoma
UACC-62 melanoma = system: UACC-62 melanoma
UO-31 renal = system: UO-31 renal

## O=C(N=Nc1c(O)[nH]c2ccc(Br)cc12)c1ccc2nc(-c3ccc(Cl)cc3)[nH]c2c1
786-0 renal
  GI50: 29.6 µM
  TGI: > 38 µM
A498 renal
  GI50: > 38 µM
  TGI: > 38 µM
A549 NSCLC
  GI50: > 38 µM
  TGI: > 38 µM
ACHN renal
  GI50: > 38 µM
  TGI: > 38 µM
BT-549 breast
  GI50: > 38 µM
  TGI: > 38 µM
CAKI-1 renal
  GI50: > 38 µM
  TGI: > 38 µM
CCRF-CEM leukemia
  GI50: 8.77 µM
  TGI: > 38 µM
COLO 205 colon
  GI50: 26.2 µM
  TGI: > 38 µM
DU-145 prostate
  GI50: 29.6 µM
  TGI: > 38 µM
EKVX NSCLC
  GI50: > 38 µM
  TGI: > 38 µM
HCC-2998 colon
  GI50: 32.6 µM
  TGI: > 38 µM
HCT-116 colon
  GI50: 15.2 µM
  TGI: > 38 µM
HCT-15 colon
  GI50: > 38 µM
  TGI: > 38 µM
HL-60(TB) leukemia
  GI50: > 38 µM
  TGI: > 38 µM
HOP-62 NSCLC
  GI50: > 38 µM
  TGI: > 38 µM
HOP-92 NSCLC
  GI50: > 38 µM
  TGI: > 38 µM
HS 578T breast
  GI50: > 38 µM
  TGI: > 38 µM
HT29 colon
  GI50: 15.2 µM
  TGI: > 38 µM
IGROV1 ovarian
  GI50: > 38 µM
  TGI: > 38 µM
K-562 leukemia
  GI50: 16.8 µM
  TGI: > 38 µM
KM12 colon
  GI50: > 38 µM
  TGI: > 38 µM
LOX IMVI melanoma
  GI50: 11.3 µM
  TGI: > 38 µM
M14 melanoma
  GI50: > 38 µM
  TGI: > 38 µM
MALME-3M melanoma
  GI50: > 38 µM
  TGI: > 38 µM
MCF7 breast
  GI50: 8.14 µM
  TGI: > 38 µM
MDA-MB-231 breast
  GI50: > 38 µM
  TGI: > 38 µM
MDA-MB-435
  GI50: 29.6 µM
  TGI: > 38 µM
MDA-MB-468 breast
  GI50: 8.03 µM
  TGI: 37.9 µM
MOLT-4 leukemia
  GI50: 11.1 µM
  TGI: > 38 µM
NCI-H226 lung
  GI50: > 38 µM
  TGI: > 38 µM
NCI-H23 lung
  GI50: 34 µM
  TGI: > 38 µM
NCI-H460 lung
  GI50: 21.7 µM
  TGI: > 38 µM
NCI-H522 lung
  GI50: > 38 µM
  TGI: > 38 µM
NCI/ADR-RES ovarian
  GI50: > 38 µM
  TGI: > 38 µM
OVCAR-3 ovarian
  GI50: > 38 µM
  TGI: > 38 µM
OVCAR-4 ovarian
  GI50: 12 µM
  TGI: > 38 µM
OVCAR-5 ovarian
  GI50: > 38 µM
  TGI: > 38 µM
OVCAR-8 ovarian
  GI50: 29.7 µM
  TGI: > 38 µM
PC-3 prostate
  GI50: > 38 µM
  TGI: > 38 µM
RPMI-8226 leukemia
  GI50: > 38 µM
  TGI: > 38 µM
RXF 393 renal
  GI50: > 38 µM
  TGI: > 38 µM
SF-268 CNS
  GI50: 10.8 µM
  TGI: > 38 µM
SF-295 CNS
  GI50: > 38 µM
  TGI: > 38 µM
SF-539 CNS
  GI50: > 38 µM
  TGI: > 38 µM
SK-MEL-2 melanoma
  GI50: > 38 µM
  TGI: > 38 µM
SK-MEL-28 melanoma
  GI50: > 38 µM
  TGI: > 38 µM
SK-MEL-5 melanoma
  GI50: > 38 µM
  TGI: > 38 µM
SK-OV-3 ovarian
  GI50: > 38 µM
  TGI: > 38 µM
SN12C renal
  GI50: > 38 µM
  TGI: > 38 µM
SNB-19 CNS
  GI50: 17.1 µM
  TGI: > 38 µM
SNB-75 CNS
  GI50: 8.44 µM
  TGI: > 38 µM
SR leukemia
  GI50: > 38 µM
  TGI: > 38 µM
SW-620 colon
  GI50: 14.5 µM
  TGI: > 38 µM
T-47D breast
  GI50: 11.8 µM
  TGI: > 38 µM
TK-10 renal
  GI50: > 38 µM
  TGI: > 38 µM
U251 CNS
  GI50: 19.9 µM
  TGI: > 38 µM
UACC-257 melanoma
  GI50: > 38 µM
  TGI: > 38 µM
UACC-62 melanoma
  GI50: > 38 µM
  TGI: > 38 µM
UO-31 renal
  GI50: > 38 µM
  TGI: > 38 µM
